Some results are limits rather than exact numbers.

As a reminder, the melting point is the temperature of the solid-liquid transition.

In data set [1] the test system is Microsporum canis. Kind of data set: Antifungal activity in vitro, resazurin growth inhibition screen: Microsporum canis. Format: cell-based. The settings on record: Microsporum canis B68128; read-out: Inf. B pIC50 (converted). In short, it runs like this: (§1)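 Growth inhibition is measured with resazurin against untreated fungal culture (100%) and medium blank (0%). Isolates thawed from cryostocks give 10^3 cfu per well in RPMI-MOPS. The dose range peaks at 64 μM in test.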
Background: Resazurin is reduced to fluorescent resorufin, in cell work by metabolically active cells.

Data set [2] relates to Trichophyton mentagrophytes. Kind of data set: Antifungal activity in vitro, resazurin growth inhibition screen: Trichophyton mentagrophytes. The settings on record: Trichophyton mentagrophytes B70554; read-out: Inf. G pIC50 (converted). In kind it is cell-based. Summed up: as §1
The subject of data set [3] is Trichophyton rubrum. Kind of data set: Antifungal activity in vitro, resazurin growth inhibition screen: Trichophyton rubrum. Format: cell-based. The settings on record: Trichophyton rubrum B68183; read-out: Inf. C pIC50 (converted). Summed up:
as §1

Data set [4] relates to Scedosporium apiospermum. Kind of data set: Antifungal activity in vitro, resazurin growth inhibition screen: Scedosporium apiospermum. Format: cell-based. The following applies: Scedosporium apiospermum IHEM3817; read-out: Inf. H pIC50 (converted). In short, it runs like this:
as §1

Data set [5] concerns Scedosporium prolificans. Kind of data set: Antifungal activity in vitro, resazurin growth inhibition screen: Scedosporium prolificans. In kind it is cell-based. The settings on record: Lomentospora prolificans; Scedosporium prolificans IHEM21157; read-out: Inf. I pIC50 (converted). In short, it runs like this:
as §1

The subject of data set [6] is Sporothrix schenkii. Kind of data set: Antifungal activity in vitro, resazurin growth inhibition screen: Sporothrix schenkii. In kind it is cell-based. The settings on record: Sporothrix schenkii B62482; read-out: Inf. A pIC50 (converted). Summed up: as §1
Data set [7] relates to Aspergillus fumigatus. Kind of data set: Antifungal activity in vitro, resazurin growth inhibition screen: Aspergillus fumigatus. The following applies: Aspergillus fumigatus B42928; read-out: Inf. E pIC50 (converted). In kind it is cell-based. Summed up: as §1
The subject of data set [8] is Candida parapsilosis. Kind of data set: Antifungal activity in vitro, resazurin growth inhibition screen: Candida parapsilosis. In kind it is cell-based. The settings on record: Lodderomyces parapsilosis; Candida parapsilosis B66126; read-out: Inf. D pIC50 (converted). In short, it runs like this:
as §1

For data set [9], the system named is Cryptococcus neoformans. Kind of data set: Antifungal activity in vitro, resazurin growth inhibition screen: Cryptococcus neoformans. Format: cell-based. The following applies: Cryptococcus neoformans B66663; read-out: Inf. F pIC50 (converted). In short, it runs like this:
as §1

Data set [10] relates to Rhizopus oryzae. Kind of data set: Antifungal activity in vitro, resazurin growth inhibition screen: Rhizopus oryzae. In kind it is cell-based. The settings on record: Rhizopus arrhizus; Rhizopus oryzae IHEM5223; read-out: Inf. J pIC50 (converted). Summed up: as §1
Data set [11] relates to Rhizomucor miehei. Kind of data set: Antifungal activity in vitro, resazurin growth inhibition screen: Rhizomucor miehei. Format: cell-based. The settings on record: Rhizomucor miehei IHEM13391; read-out: Inf. K pIC50 (converted). In short, it runs like this:
as §1

In turn, `Cl.Clc1cccc2c1CNC(c1ccc3c(c1)CCC3)c1cccn1-2` (centres unmarked) [Compound 12, 7-chloro-4-(2,3-dihydro-1H-inden-5-yl)-5,6-dihydro-4H-pyrrolo[1,2-a][1,4]benzo-diazepine .HCl] had a melting point of 242.7 to 243.5 °C. Further, in data set [1], the IC50 was 0.38 µM. For the same compound, in data set [2], the IC50 is 0.0589 µM. Besides, the IC50 in [3] was 0.138 µM. In addition, in data set [4], the IC50 is more than 64.6 µM. Moreover, the IC50 in data set [5] is more than 64.6 µM. In addition, in data set [6], the IC50 is 64.6 µM. In addition, the IC50 in [7] is 0.151 µM. Further, in data set [8], the IC50 is 0.575 µM. In addition, the IC50 in data set [9] is 3.02 µM. The IC50 in [10] is more than 64.6 µM. Besides, the IC50 in data set [11] is more than 64.6 µM.

With `Clc1cccc2c1CN=C(c1ccc3c(c1)CCC3)c1cccn1-2` [Compound 20, 7-chloro-4-(2,3-dihydro-1H-inden-5-yl)-6H-pyrrolo[1,2-a][1,4]benzodiazepine], the melting point was 181.3 to 182.7 °C. Besides, in [1], the IC50 was 0.129 µM. Also, in [3], the IC50 is 0.0708 µM. The IC50 in data set [4] is 8.91 µM. The IC50 in [5] is 0.851 µM. Also, the IC50 in data set [6] was 2 µM. Further, the IC50 in data set [7] was 0.269 µM. In [8], the IC50 was 0.339 µM. Further, the IC50 in data set [9] is 0.38 µM. In addition, the IC50 in data set [10] was more than 11.2 µM. Also, in [11], the IC50 is 13.8 µM.

As for `Clc1cccc2c1CN=C(c1ccc3c(c1)CCCC3)c1cccn1-2` [Compound 21, 7-chloro-4-(5,6,7,8-tetrahydro-2-naphthalenyl)-6H-pyrrolo[1,2-a][1,4]benzo-diazepine], the melting point lay within 180 to 181.5 °C. Further, the IC50 in data set [1] is 0.49 µM. Further, the IC50 in data set [2] was 0.603 µM. For the same compound, the IC50 in [3] is 0.17 µM. For the same compound, the IC50 in data set [4] is 0.12 µM. Further, the IC50 in data set [5] was 0.0398 µM. Besides, the IC50 in data set [6] is 1.38 µM. For the same compound, the IC50 in data set [7] is 0.0468 µM. For the same compound, the IC50 in data set [8] was 1.41 µM. In data set [9], the IC50 was 0.339 µM. Moreover, in [10], the IC50 is 2 µM. For the same compound, the IC50 in data set [11] is 0.933 µM.

For `Clc1cc(Cl)c2c(c1)CN=C(c1ccc3c(c1)CCC3)c1cccn1-2` [Compound 25, 8,10-dichloro-4-(2,3-dihydro-1H-inden-5-yl)-6H-pyrrolo[1,2-a][1,4]benzodiazepine], the melting point lay within 178.5 to 180.2 °C. Besides, the IC50 in data set [1] is 0.832 µM. Moreover, in [2], the IC50 was 0.38 µM. In addition, the IC50 in [3] was 0.794 µM. Further, the IC50 in data set [4] is more than 64.6 µM. Further, in [6], the IC50 is 2 µM. The IC50 in data set [7] is 0.155 µM. Besides, the IC50 in data set [8] was more than 64.6 µM. Besides, in data set [9], the IC50 is 1 µM. For the same compound, the IC50 in data set [10] is more than 64.6 µM. Also, the IC50 in data set [11] was 39.8 µM.

In the case of `O=C1OCc2ccc(C3=NCc4c(Cl)cc(Cl)cc4-n4cccc43)cc21` [Compound 64, 6-(7,9-dichloro-6H-pyrrolo[1,2-a][1,4]benzodiazepin-4-yl)-1 (3H)-isobenzofuranone], the melting point is 210.5 to 212 °C. Also, the IC50 in data set [1] was more than 64.6 µM. In [2], the IC50 is more than 64.6 µM. The IC50 in data set [3] was more than 64.6 µM. Moreover, in [6], the IC50 is more than 64.6 µM. For the same compound, the IC50 in [7] is more than 64.6 µM. Also, the IC50 in [8] is more than 64.6 µM. For the same compound, in data set [9], the IC50 was more than 64.6 µM.

As for `Fc1cccc2c1CN=C(c1ccc3c(c1)CCC(F)(F)O3)c1cccn1-2` [Compound 70, 4-(2,2-difluoro-3,4-dihydro-2H-1-benzopyran-6-yl)-7-fluoro-6H-pyrrolo[1,2-a]-[1,4]benzodiazepine], the melting point fell in the range of 158.9 to 159.3 °C. Further, the IC50 in data set [1] was 64.6 µM. In data set [2], the IC50 was more than 64.6 µM. In [3], the IC50 was more than 64.6 µM. In data set [6], the IC50 was more than 64.6 µM. Also, the IC50 in data set [7] is more than 64.6 µM. Also, the IC50 in [8] was 0.759 µM. In addition, in data set [9], the IC50 is 0.955 µM.
